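Values below derive from 48-hour exposures of cells grown in 96-well plates, with endpoints linearly interpolated between the two concentrations bracketing the appropriate inhibition level. The concentration for 50% growth inhibition is given as GI50.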 Active and inactive are the calls of the source. Rule as the data show it: active = GI50 up to about 1.1 µM and inactive = higher.
How the values were obtained:
Experiment in all cases: growth of human tumour cells (NCI), 48 h
[1] = test system: RPMI-8226
[2] = test system: SNB-19
[3] = test system: SF-268
[4] = test system: PC-3
[5] = test system: TK-10
[6] = test system: HOP-62
[7] = test system: CAKI-1
[8] = test system: ACHN
[9] = test system: SN12C
[10] = test system: SK-MEL-5
[11] = test system: NCI/ADR-RES
[12] = test system: HCC 2998
[13] = test system: HOP-92
[14] = test system: SF-295
[15] = test system: 786-0
[16] = test system: T47D
[17] = test system: MDA-MB-435
[18] = test system: UACC-62
[19] = test system: Hs-578T

Measured: GI50

CSc1ncnc2c1ncn2CCC(=O)OC(C)(C)C
inactive: [1] > 100 µM | [2] > 100 µM | [3] > 100 µM | [4] > 100 µM | [5] > 100 µM | [6] > 100 µM | [7] > 100 µM | [8] > 100 µM | [9] > 100 µM | [10] > 100 µM | [11] > 100 µM | [12] > 100 µM | [13] > 100 µM | [14] > 100 µM | [15] > 100 µM | [16] > 100 µM | [17] > 100 µM

CC(C)c1c(O[Si](C(C)C)(C(C)C)C(C)C)c2c3c(ccc4c3c1OC4(C)C)C(C)CC2 (centres undefined)
inactive: [1] > 100 µM | [2] > 100 µM | [18] > 100 µM | [3] > 100 µM | [4] > 100 µM | [5] > 100 µM | [6] > 100 µM | [7] > 100 µM | [8] > 100 µM | [9] > 100 µM | [10] > 100 µM | [11] > 100 µM | [13] > 100 µM | [14] > 100 µM | [19] > 100 µM | [15] > 100 µM | [17] > 100 µM

CC1CC(N)=C(C#N)C1(C#N)C#N (centres undefined)
inactive: [1] > 100 µM | [2] > 100 µM | [18] > 100 µM | [3] > 100 µM | [4] > 100 µM | [5] > 100 µM | [7] 24.3 µM | [8] > 100 µM | [9] > 100 µM | [11] > 100 µM | [12] > 100 µM | [13] > 100 µM | [14] > 100 µM | [19] > 100 µM | [15] > 100 µM | [16] > 100 µM | [17] > 100 µM

O=C(O)C1C2C=CC(O2)C1C(=O)NCc1ccncc1 (centres undefined)
inactive: [1] > 100 µM | [2] > 100 µM | [18] > 100 µM | [3] > 100 µM | [4] > 100 µM | [5] > 100 µM | [6] > 100 µM | [7] > 100 µM | [8] > 100 µM | [9] > 100 µM | [10] > 100 µM | [13] > 100 µM | [14] > 100 µM | [19] > 100 µM | [15] > 100 µM | [16] > 100 µM | [17] > 100 µM

COC(=O)c1cc2c(c(C(=O)OC)c1O)C(=O)C=CC2=O
inactive: [1] > 9.1 µM | [2] > 42.7 µM | [18] > 9.1 µM | [3] > 40.6 µM | [5] > 39.4 µM | [6] 30 µM | [7] > 9.1 µM | [8] > 31.3 µM | [9] > 42.1 µM | [10] 37.2 µM | [12] > 43.1 µM | [13] 8.2 µM | [14] 27 µM | [15] 35.7 µM

COCc1cc2c(cc1/C(=C/[N+](=O)[O-])CS(=O)(=O)c1ccccc1)OCO2
inactive: [1] > 100 µM | [18] > 100 µM | [3] > 100 µM | [5] > 100 µM | [6] > 100 µM | [7] > 100 µM | [8] > 100 µM | [9] > 100 µM | [10] > 100 µM | [11] > 100 µM | [12] > 100 µM | [13] > 100 µM | [14] > 100 µM | [19] > 100 µM | [15] > 100 µM | [16] > 100 µM | [17] > 100 µM

N#C/C(=C/c1cccnc1)C(=O)c1ccccc1
inactive: [1] > 100 µM | [2] > 100 µM | [18] > 100 µM | [3] > 100 µM | [5] > 100 µM | [6] > 100 µM | [7] > 100 µM | [8] > 100 µM | [9] > 100 µM | [10] > 100 µM | [12] > 100 µM | [13] > 100 µM | [14] > 100 µM | [15] > 100 µM

Cn1c(N/N=C/c2ccccc2)nc(-c2ccc([N+](=O)[O-])cc2)c(C#N)c1=O
inactive: [1] 17.7 µM | [2] > 100 µM | [18] 27.9 µM | [3] 39.7 µM | [4] 59.6 µM | [5] 55 µM | [6] 77.8 µM | [7] 54.5 µM | [8] > 100 µM | [9] 47.2 µM | [10] 35.4 µM | [11] 86.3 µM | [13] 16.5 µM | [14] 50.1 µM | [19] 55.1 µM | [15] 91.8 µM | [16] 97.9 µM | [17] > 100 µM

C=C(CC(=O)Nc1ccc(C(=O)OC)o1)C(=O)OC
inactive: [2] 25.3 µM | [18] 25.4 µM | [3] 36.6 µM | [4] 23.6 µM | [5] 20.8 µM | [6] 73.3 µM | [7] 24.5 µM | [8] 18.7 µM | [9] 24.9 µM | [10] 18.5 µM | [11] 41.3 µM | [13] 29.4 µM | [14] 34.5 µM | [19] 53.1 µM | [15] 19.7 µM | [16] 23.2 µM | [17] 17.8 µM

COc1ccc(-c2c(C(C)=O)c(C)n(C3OC(COC(C)=O)C(OC(C)=O)C(OC(C)=O)C3OC(C)=O)c(=S)c2C#N)cc1 (centres undefined)
inactive: [2] 89.9 µM | [18] 36.6 µM | [3] > 100 µM | [4] 45.2 µM | [5] > 100 µM | [6] > 100 µM | [7] 28.9 µM | [8] > 100 µM | [9] > 100 µM | [10] 63.1 µM | [11] 71 µM | [12] > 100 µM | [13] 15 µM | [14] 69 µM | [15] 62.1 µM | [16] > 100 µM | [17] > 100 µM

COc1ccc(N[S+]([O-])CCc2ccccc2)cc1 (centres undefined)
inactive: [1] > 100 µM | [2] > 100 µM | [3] > 100 µM | [5] > 100 µM | [6] > 100 µM | [7] > 100 µM | [8] > 100 µM | [9] > 100 µM | [10] > 100 µM | [11] 58.1 µM | [12] 94 µM | [14] > 100 µM | [19] 23.4 µM | [15] > 100 µM | [17] > 100 µM

COc1cc(/C=C/c2ccc(OC)c(OC)c2OC)cc(OC)c1OC
inactive: [1] 14.1 µM | [2] 21.3 µM | [18] 13.4 µM | [3] 20.1 µM | [5] 28.2 µM | [6] 15.6 µM | [7] 25.1 µM | [8] 25.1 µM | [9] 21.4 µM | [10] 14.7 µM | [12] 13.2 µM | [13] 9.35 µM | [14] 20.8 µM | [15] 21.8 µM
